Consider two molecules from PMC4381330, “Identification of a novel selective agonist of PPARγ with no promotion of adipogenesis and less inhibition of osteoblastogenesis” (Scientific Reports, 2015).

The subject of assay [1] is 3T3-L1 preadipocytes. Nature of the assay: Adipogenic differentiation of 3T3-L1 preadipocytes (Oil red O, triglyceride content). The class given is cell-based, mouse. The protocol: (§1) 3T3-L1 preadipocytes were grown to confluency in DMEM containing 10% CS. At 2 days post-confluency, the cells were stimulated with differentiation medium (DMEM containing 10% FBS, 10 μg/mL insulin, 1 μM dexamethasone, and 0.5 mM IBMX) for 48 h. Then, the cells were exposed in post-differentiation-maintaining medium (DMEM containing 10% FBS and 10 μg/mL insulin) for a further 48 h, which was replaced with expansion medium (DMEM containing 10% FBS) every 2 days after then. Compounds were added to the post-differentiation and expansion medium. At day 4, the cells were harvested for RNA preparation. At Day 8, the cells were fixed with 10% formaldehyde and stained with Oil red O solution. After washing with water, photos were taken. Solubilized dye was quantified at 550 nm. In addition, total triglyceride of the cells was measured by a total TG measurement kit (Applygene, China). Experiments were performed at least three times.

Assay [2] relates to MC3T3-E1 preosteoblasts. The assay is described as follows: Osteoblastic differentiation of MC3T3-E1 cells (Alizarin red S, Alp activity). It counts as cell-based. The following applies: F12016 1, 10, 30 μM. The protocol:
(§2) MC3T3-E1 cells were cultured in α-MEM to confluency in 24-well plates and then cultured in differentiation medium (α-MEM supplemented with 200 μM ascorbic acid and 10 mM β-glycerophosphate) for 7, 14, and 21 days, which was replaced every 3 days. The cells were treated with DMSO, rosiglitazone, or F12016 at the start of differentiation. At day 8, 15 and 22, total RNA was isolated, and real-time PCR was performed as described below.
Mature osteoblasts were stained with Alizarin red S and Alp activity were measured at day 22. In brief, cells were fixed with 75% ethanol and stained with 40 mM Alizarin red S solution (pH 4.1–4.3) for 10 min. For Alp assay, the cells were harvested and sonicated on ice with two 30s-pulses. Supernatant of lysate was incubated with isopyknic 1.0 mg/ml pNPP (Sigma–aldrich) solution (1 M diethanolamine buffer, 0.5 mM magnesium chloride) for 30 min at 37°C. The reaction was measured at 405 nm. Relative ALP activity was normalized to the protein concentration.

Assay [3] concerns osteoblast marker genes in MC3T3-E1 cells. Also noted: method as in PMID 21892191. The following applies: rosiglitazone 10 μM; cited from earlier work.
In assay [4] the test system is diabetic KKAy mice. Nature of the assay: Diabetic KKAy mice, 21 days treatment (fasting blood glucose, OGTT, ITT, body weight). Particulars: after 21 days, F12016 75 mg/kg, rosiglitazone 5 mg/kg.
Procedure: Fasting blood glucose was measured with Onetoch Ultra Teststrip (Johnson & Johnson) at day 0, 3, 7, 14, 21, and body weight were monitored during these days.
After 14 days of treatment, oral glucose tolerance test (OGTT) was performed. Mice were fasted for 6 h with free access to water. 2 g/kg of glucose was given by gavage and blood glucose was measured at 0, 30, 60, 90, and 120 min.
After 21 days of feeding, insulin tolerance test (ITT) was carried out. Mice were fasted for 4 h before being injected 1 U/kg of recombinant human insulin (Novo Nordisk) subcutaneously, and blood glucose was measured at 0, 40, 90, and 120 min after insulin injection.
Assay [5] has as its system osteoblast marker genes in MC3T3-E1 cells. Nature of the assay: Expression of osteoblast marker genes in MC3T3-E1 cells (qPCR). The class given is cell-based. As for the experimental part: as §2
(§3) Total RNA was extracted using TRIzol reagent (Invitrogen). First-strand cDNA was synthesized from the total RNA using a reverse transcriptional kit (TransGen). Quantitative PCR with SYBR Green (Roche Diagnostics, Lewes, UK) was performed on a Stratagene MX3000P real-time PCR system (Agilent). Melting curves were obtained, and the specificity of PCR products was checked on agarose gels. Relative mRNA expression was determined by the ΔΔCt method and normalized to GAPDH mRNA levels.

The test system of assay [6] is PPARγ target genes in differentiating 3T3-L1 cells. Nature of the assay: Expression of adipogenesis-related and PPARγ-responsive genes in differentiating 3T3-L1 adipocytes (qPCR). The class given is cell-based, mouse. As for the experimental part:
as §1, §3

Assay [7] deals with PPARγ LBD mutants. The class given is cell-based, human. Particulars: compared with wild-type PPARγ LBD. As for the experimental part: All chemicals were purchased from Sigma-Aldrich (St. Louis, MO, USA). All medium and serum were obtained from Gibco (Invitrogen). […] Mutations in pBIND-PPARγ-LBD were created by site-directed mutagenesis using the Fast Mutagenesis System (TransGen Biotech, Beijing, China).
The determination of nuclear receptor activation was performed as previously. Briefly, HEK293T cells were transfected with GAL4-pGL4-luc reporter plasmid and pBIND-PPARγ-LBD expression plasmid using Lipofectamine 2000 (Invitrogen) for 6 h before treatment with compounds for 20–24 h. Activity was determined by the Luciferase Assay System (Promega).

As to `O=C(Nc1ccccc1)c1cc([N+](=O)[O-])ccc1Cl` [GW9662, reference compound], the “effect of co-incubation on rosiglitazone-induced adipogenesis” value in assay [1] (GW9662 20 μM plus RGZ 10 μM) was “weakened”.
Consider `CN(CCOc1ccc(CC2SC(=O)NC2=O)cc1)c1ccccn1` (centres unmarked) [rosiglitazone, reference compound], for which, in assay [1] (6 days of stimulation), the “intracellular triglyceride (TG) content” value is on record as “significant increase”. Further, the “lipid accumulation / intracellular lipid droplets (Oil red O staining)” value in assay [1] (RGZ 0.1, 1, 10 μM, F12016 1, 10, 30 μM) is listed as “significant increase in Oil red O staining”. Further, in assay [2], the “alkaline phosphatase (Alp) activity” value is on record as “significantly reduced alkaline phosphatase (Alp) activity” and the “mineralization (Alizarin Red S)” value was “impaired calcification of bone cells”. Besides, the “expression of RANKL in differentiated MC3T3-E1 cells” value in assay [3] is “reduced expression of RANKL”. Moreover, the “blood glucose after insulin injection (ITT)” value in assay [4] (insulin 1 IU/kg) is given as “significantly reduced blood glucose”. For the same molecule, the average body weight entry in assay [4] (vs vehicle) is on record as “showed weight gain in a certain extent”. The “expression of Alp and Col1” value in assay [5] (7 days) is given as “reduced expressions”. In addition, the “expression of RANKL” value in assay [5] (7 days, rosiglitazone 1 μM, compared with control) was “not significantly changed”. Further, the “expression of Ibsp and Bglap” value in assay [5] (Ibsp 14 days, Bglap 21 days) is on record as “reduced expressions”. For the same molecule, the “mRNA levels of 11β-HSD1” value in assay [6] is on record as “similarly decreased the mRNA levels”. The “expression of fatty acid synthase (Fasn)” value in assay [6] (both compounds to a similar extent) is listed as “upregulated expression”. Moreover, the “activation of S289A, H323A, H449A and Y473A mutants” value in assay [7] is given as “nearly abolished”.
